Results as given in US11524966B1 (Valo Early Discovery, Inc., priority 2017, dated 2022).

These compounds were tested against T1, USP25 (USP25-His6, Boston Biochem E-546) (Homo sapiens, UniProt Q9UHP3) (assay: Ubiquitin-Rhodamine 110 Assay for USP25 Activity, Example A-2). Conditions: Ub-Rh110 assay, Example A-2; read-out: USP25 A-2 IC50 range.
T1 construct: His6; purchased Boston Biochem E-546
T1 sequence (Q9UHP3 1-1055): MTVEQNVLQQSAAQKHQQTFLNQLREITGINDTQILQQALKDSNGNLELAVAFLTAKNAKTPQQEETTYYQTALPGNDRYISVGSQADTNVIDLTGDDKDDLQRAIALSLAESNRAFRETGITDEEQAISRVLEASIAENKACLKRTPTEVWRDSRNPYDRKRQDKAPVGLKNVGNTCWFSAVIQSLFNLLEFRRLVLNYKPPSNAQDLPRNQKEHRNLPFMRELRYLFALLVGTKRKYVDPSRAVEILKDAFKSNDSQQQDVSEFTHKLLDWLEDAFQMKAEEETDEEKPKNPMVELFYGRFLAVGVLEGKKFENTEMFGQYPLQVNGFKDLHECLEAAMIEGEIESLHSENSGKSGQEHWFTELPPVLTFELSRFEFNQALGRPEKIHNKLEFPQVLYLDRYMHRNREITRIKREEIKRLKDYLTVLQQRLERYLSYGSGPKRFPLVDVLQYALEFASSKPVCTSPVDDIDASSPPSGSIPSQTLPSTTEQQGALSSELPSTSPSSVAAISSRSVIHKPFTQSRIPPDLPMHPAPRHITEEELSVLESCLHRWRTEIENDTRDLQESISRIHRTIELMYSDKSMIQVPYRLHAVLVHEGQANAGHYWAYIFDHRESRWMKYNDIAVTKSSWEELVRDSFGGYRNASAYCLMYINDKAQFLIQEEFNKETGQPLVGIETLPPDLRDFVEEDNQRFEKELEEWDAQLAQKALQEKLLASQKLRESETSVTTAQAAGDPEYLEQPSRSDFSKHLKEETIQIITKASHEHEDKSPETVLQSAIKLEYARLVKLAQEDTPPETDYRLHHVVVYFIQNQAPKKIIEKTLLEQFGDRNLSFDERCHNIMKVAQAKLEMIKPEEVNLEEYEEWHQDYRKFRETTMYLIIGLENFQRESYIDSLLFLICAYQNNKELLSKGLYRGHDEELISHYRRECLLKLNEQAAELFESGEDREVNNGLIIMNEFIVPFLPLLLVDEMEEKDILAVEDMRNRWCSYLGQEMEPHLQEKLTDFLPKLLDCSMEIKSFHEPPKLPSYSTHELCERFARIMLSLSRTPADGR
Format: biochemical
Method: The assay was performed in a final volume of 9 μL in assay buffer containing 20 mM Tris-HCl (pH 8.0, (1M Tris-HCl, pH 8.0 solution; Corning 46-031-CM)), 3 mM BME (2-Mercaptoethanol; Sigma 63689-25ML-F), 0.03% BGG (0.22 μM filtered, Sigma, G7516-25G), and 0.01% Triton X-100 (Sigma, T9284-10L). Nanoliter quantities of 10-point, 3-fold serial dilution in DMSO was pre-dispensed into 1536 assay plates (Corning, #3724BC) for a final test concentration of 25 μM to 1.3 nM, top to lowest dose, respectively. Enzyme USP25, construct USP25-His6, (Boston Biochem E-546). Concentration and incubation times were optimized for the maximal signal-to-background while maintaining initial velocity conditions at a fixed substrate concentration. The final concentration of the enzyme in the assay was 75 pM. Final substrate (Ub-Rh110; Ubiquitin-Rhodamine 110, R&D Systems #U-555) concentration was 25 nM with [Ub-Rh110]<<Km. 3 μL of 2× enzyme was added to assay plates (pre-stamped with compound) preincubated with […] for 30 minutes and then 3 μL of 2×Ub-Rh110 was added to assay plates. Plates were incubated for 45 minutes at room temperature before addition of 3 μL of stop solution (final concentration of 10 mM citric acid (Sigma, 251275-500G)). Fluorescence was read on the Envision (Excitation at 485 nm and Emission at 535 nm; Perkin Elmer) or on the PheraSTAR (Excitation at 485 nm and Emission at 535 nm; BMG Labtech).
IC50 values were determined by curve fitting of the standard 4 parameter logistic fitting algorithm included in the Activity Base software package: IDBS XE Designer Model 205. Data is fitted using the Levenburg Marquardt algorithm.
`Cc1ccc2c(N)c(C(=O)N[C@H]3COc4cc(N5CCN[C@@H](C)C5)ccc4C3)sc2n1` [Example 2-8, 3-amino-6-methyl-N-((R)-7-((S)-3-methylpiperazin-1-yl)chroman-3-yl)thieno[2,3-b]pyridine-2-carboxamide] gave an IC50 of 200 to 2000 nM.
`CO[C@@H]1CN(c2ccc3c(c2)OC[C@H](NC(=O)c2sc4nc(C)ccc4c2N)C3)C[C@H]1N` (single isomer, unassigned) [Example 3-2] gave an IC50 of 200 to 2000 nM.
`Cc1ccc2c(N)c(C(=O)N[C@@H]3COc4cc(N5CCNCC5)c(F)cc4C3)sc2n1` [Example 1-36, (S)-3-amino-N-(6-fluoro-7-(piperazin-1-yl)chroman-3-yl)-6-methylthieno[2,3-b]pyridine-2-carboxamide] showed an IC50 greater than 2000 nM.
`CCn1ccc2cc(C(=O)N[C@H]3COc4cc(N5CC6CCC(C5)N6)ccc4C3)cnc21` (single isomer, unassigned) [Example 1-28] was tested, and the IC50 was 50 to 200 nM.
With `Cc1ccc2c(N)c(C(=O)N[C@@H]3COc4c(ccc(N5CCNCC5)c4F)C3)sc2n1` [Example 1-34, (S)-3-amino-N-(8-fluoro-7-(piperazin-1-yl)chroman-3-yl)-6-methylthieno[2,3-b]pyridine-2-carboxamide] the IC50 was greater than 2000 nM.
With `Cc1cc(C)c2c(N)c(C(=O)N[C@H]3COc4cc(N5CC6CNCC(C5)C6(F)F)ccc4C3)sc2n1` [Example 2-19, 3-amino-N-((3R)-7-(9,9-difluoro-3,7-diazabicyclo[3.3.1]nonan-3-yl)chroman-3-yl)-4,6-dimethylthieno[2,3-b]pyridine-2-carboxamide] the IC50 was 1 to 50 nM.
Work on `Cc1cc(C)c2c(N)c(C(=O)N[C@H]3COc4cc(N5CC6CNCC(C5)O6)ccc4C3)sc2n1` [Example 2-20, N-((3R)-7-(9-oxa-3,7-diazabicyclo[3.3.1]nonan-3-yl)chroman-3-yl)-3-amino-4,6-dimethylthieno[2,3-b]pyridine-2-carboxamide] yielded an IC50 of 1 to 50 nM.
With `Cc1cc(C)c2c(N)c(C(=O)N[C@H]3COc4cc(N5CCNCC5)ccc4C3)sc2n1` [Example 2-17, (R)-3-amino-4,6-dimethyl-N-(7-(piperazin-1-yl)chroman-3-yl)thieno[2,3-b]pyridine-2-carboxamide] the IC50 was 50 to 200 nM.
For `Cc1ccc2c(N)c(C(=O)N[C@H]3COc4cc(N5CC6CC(C5)N6)cc(F)c4C3)sc2n1` (single isomer, unassigned) [Example 1-42], the IC50 was greater than 2000 nM.
In the case of `Cc1cnc2c(N)c(C(=O)N[C@H]3CCc4cc(N5CCNCC5)c(C)cc4C3)sc2n1` (single isomer, unassigned) [Example 2-34], the IC50 is reported as greater than 2000 nM.
Work on `Nc1c(C(=O)N[C@@H]2COc3cc(N4CC5CCC(C4)N5)ccc3C2)sc2ncc(F)cc12` (single isomer, unassigned) [Example 1-18] yielded an IC50 greater than 2000 nM.
With `Cc1ccc2c(N)c(C(=O)N[C@H]3COc4cc(N5CCNCC5)c(OC(F)(F)F)cc4C3)sc2n1` (single isomer, unassigned) [Example 1-31] the IC50 was greater than 2000 nM.
`Cc1ccc2c(N)c(C(=O)N[C@H]3COc4c(ccc(N5CCNCC5)c4F)C3)sc2n1` [Example 1-33, (R)-3-amino-N-(8-fluoro-7-(piperazin-1-yl)chroman-3-yl)-6-methylthieno[2,3-b]pyridine-2-carboxamide] was tested, and the IC50 was 50 to 200 nM.
`Cc1ccc2c(N)c(C(=O)N[C@H]3COc4cc(N5CCN[C@H](C)[C@H]5C)ccc4C3)sc2n1` (single isomer, unassigned) [Example 1-11] was tested, and the IC50 was 50 to 200 nM.
With `O=C(N[C@H]1COc2cc(N3CC4CCC(C3)N4)ccc2C1)c1ccc(NCc2ccccc2)nc1` [Example 2-25, N-((3R)-7-(3,8-diazabicyclo[3.2.1]octan-3-yl)chroman-3-yl)-6-(benzylamino)nicotinamide] the IC50 was 50 to 200 nM.
Work on `Cc1ccc2c(N)c(C(=O)N[C@@H]3COc4cc(N5CCN[C@@H](C)[C@@H]5C)ccc4C3)sc2n1` (single isomer, unassigned) [Example 1-14] yielded an IC50 of 200 to 2000 nM.
In the case of `Cc1ccc2c(N)c(C(=O)N[C@@H]3COc4cc(N5CC6CC(C5)N6)ccc4C3)sc2n1` [Example 2-3, N-((3S)-7-(3,6-diazabicyclo[3.1.1]heptan-3-yl)chroman-3-yl)-3-amino-6-methylthieno[2,3-b]pyridine-2-carboxamide], the IC50 is reported as greater than 2000 nM.
For `Cc1ccc2c(N)c(C(=O)N[C@@H]3COc4cc(N5CC6CCCC(C5)N6)ccc4C3)sc2n1` (single isomer, unassigned) [Example 1-6], the IC50 was greater than 2000 nM.
Work on `Cc1ccc2c(N)c(C(=O)N[C@@H]3COc4cc(N5CC6CCC(C5)N6)ccc4C3)sc2n1` (single isomer, unassigned) [Example 1-4] yielded an IC50 greater than 2000 nM.
With `CCn1ccc2cc(C(=O)N[C@H]3COc4cc(N5CC6CCCC(C5)N6)ccc4C3)nnc21` [Example 2-29, N-((3R)-7-(3,9-diazabicyclo[3.3.1]nonan-3-yl)chroman-3-yl)-7-ethyl-7H-pyrrolo[2,3-c]pyridazine-3-carboxamide] the IC50 was 200 to 2000 nM.
For `Cc1cc(C)c2c(N)c(C(=O)N[C@H]3COc4c(C#N)c(N5CCNCC5)cc(F)c4C3)sc2n1` [Example 2-31, (R)-3-amino-N-(8-cyano-5-fluoro-7-(piperazin-1-yl)chroman-3-yl)-4,6-dimethylthieno[2,3-b]pyridine-2-carboxamide], the IC50 was 200 to 2000 nM.
In the case of `Cc1cnc2c(N)c(C(=O)N[C@@H]3COc4cc(N5CCNCC5)ccc4C3)sc2n1` (single isomer, unassigned) [Example 1-22], the IC50 is reported as greater than 2000 nM.
For `Cc1ccc2c(N)c(C(=O)N[C@H]3COc4cc(N5CC6CCCC(C5)N6)ccc4C3)sc2n1` (single isomer, unassigned) [Example 1-5], the IC50 was 1 to 50 nM.
Compound `Cc1nc2sc(C(=O)N[C@H]3COc4cc(N5CC6CCC(C5)N6)ccc4C3)c(N)c2s1` [Example 1-23, N-((3R)-7-(3,8-diazabicyclo[3.2.1]octan-3-yl)chroman-3-yl)-6-amino-2-methylthieno[2,3-d]thiazole-5-carboxamide] has an IC50 of 200 to 2000 nM.
`Cc1ccc2c(N)c(C(=O)N[C@H]3COc4cc(N5CCN[C@H](C)C5)ccc4C3)sc2n1` [Example 2-9, 3-amino-6-methyl-N-((R)-7-((R)-3-methylpiperazin-1-yl)chroman-3-yl)thieno[2,3-b]pyridine-2-carboxamide] was tested, and the IC50 was 200 to 2000 nM.
Compound `Cc1ccc2c(N)c(C(=O)N[C@@H]3COc4cc(N5CC6CCC(C5)N6)cc(F)c4C3)sc2n1` (single isomer, unassigned) [Example 1-30] has an IC50 greater than 2000 nM.
Work on `CCn1ccc2cc(C(=O)N[C@@H]3COc4cc(N5CC6CCC(C5)N6)ccc4C3)cnc21` (single isomer, unassigned) [Example 1-27] yielded an IC50 greater than 2000 nM.
Work on `Cc1ccc2c(N)c(C(=O)N[C@H]3COc4cc(N5CC6CNCC(C5)C6(F)F)ccc4C3)sc2n1` [Example 2-1, 3-Amino-N-((3R)-7-(9,9-difluoro-3,7-diazabicyclo[3.3.1]nonan-3-yl)chroman-3-yl)-6-methylthieno[2,3-b]pyridine-2-carboxamide] yielded an IC50 of 1 to 50 nM.

Same assay, conditions: Ubiquitin-Rhodamine 110 assay, Example A-2; read-out: USP25 A-2 IC50 range
`Cc1cnc2c(N)c(C(=O)N[C@H]3CCc4nc(N5CCNCC5)ccc4C3)sc2n1` [Example 23-6, 7-amino-3-methyl-N-[(6S)-2-(piperazin-1-yl)-5,6,7,8-tetrahydroquinolin-6-yl]thieno[2,3-b]pyrazine-6-carboxamide] gave an IC50 of 200 to 2000 nM.
